Entries after “also recorded” stand apart in the source; their conditions may differ. Where two headings read alike, the source gives them in different places.
Tests used:
[1] = tested on: mouse sperm adhesion to eggs; settings: Litscher et al. 1995; cited from earlier work
CD22 = settings: cited from earlier work
[2] = tested on: L-selectin-dependent lymphocyte adhesion to cardiac endothelium; assay: Stamper-Woodruff binding assay: lymphocyte adhesion to endothelium of rejecting cardiac transplants; type: cell-based, rat; settings: rejecting cardiac allografts
From the text: The inhibition of lymphocyte adhesion to cardiac endothelium during acute rejection episodes by oligosaccharides was examined using the family of oligosaccharides synthesized by enzyme-aided synthesis in Example 2: monovalent sLex tetrasaccharide (1), divalent sLex decasaccharide (4) and tetravalent sLex 22-meric oligosaccharide (9) and their non-fucosylated sialyl lactosamine analogues (3, 8). […] Concomitantly the non-fucosylated sialyl-lactosamine glycans were without effect.
In parallel experiments the capacity of the tetravalent sLex glycans 9 and 17, and of the nonfucosylated analogs glycan 8 and glycan 16, were compared in inhibiting L-selectin-dependent lymphocyte adhesion to cardiac endothelium during acute rejection. The lymphocytes were preincubated for 30 min with varying concentrations of the oligosaccharides and used thereafter in the Stamper-Woodruff binding assay in the incubation media as described in Example 1.

[3] = tested on: L-selectin-dependent lymphocyte adhesion to cardiac endothelium; settings: lymphocytes and rejecting rat heart endothelium, Turunen et al. 1995; cited from earlier work
[4] = tested on: P-selectin mediated inflammation; settings: low concentrations; cited from earlier work
inflammation = settings: cited from earlier work
[5] = tested on: L-selectin-dependent lymphocyte adhesion to peritubular capillary endothelium (PTCE); assay: Stamper-Woodruff binding assay: lymphocyte adhesion to peritubular capillary endothelium of rejecting kidney allografts; settings: for inhibition of lymphocyte binding to PTCE (in words) / inhibitory capacity compared with other oligosaccharides (in words): rejecting kidney allografts; for IC50: read-out: IC50, inhibitory concentration preventing 50% of binding, L-selectin-dependent lymphocyte binding, rejecting rat kidney transplant
From the text: The animal models for cardiac transplant rejection and kidney transplant rejection utilized inbred WF (RT1^v) and DA (RT1^a) rat strains that were maintained in a colony and regularly tested for intrastrain acceptance of transplants as well as for the absence of intrastrain mixed lymphocyte culture. DA transplants into WF recipients were allografts, WF grafts to WF and DA grafts to DA served as syngeneic controls.
Small pieces of the removed syngeneic (DA to DA and WF to WF), allogeneic (DA to WF) transplants were mounted in Tissue Tek medium (Lab-Tek Productions, Naperville, Ill.) and snapfrozen in liquid nitrogen. Eight μm thick frozen sections were prepared within one hour prior to the use of the sections in the lymphocyte--endothelium binding assay (Renkonen, R. et al., Transplantation 47:577-579 (1989); Renkonen, R. et al., Am. J. Pathol. 137:643-651 (1990); Turunen J. P. et al., Transplantation 54:1053-1058 (1992); Turunen, J. P. et al., Eur. J. Immunol. 24:1130-1136 (1994); Turunen, J. P. et al., J. Exp. Med., 182:1133-1142 (1995)).
Single cell suspensions of mesenterical lymph node lymphocytes were made by mechanical disaggregation in RPMI 1640 medium (Gibco, Grand Island, N.Y.) supplemented with Hepes (25 mM) and 0.5% fetal calf serum and the cells were passed through a 50 μm pore size mesh. Over 99% of the cells were lymphocytes, and the lymphocyte population consisted of 80-90% CD3-positive T cells, 50-60% CD4-positive T cells, 25-35% CD8-positive T cells and 10-20% CD19-positive B cells, as analyzed by flow cytometric analyses and immunoperoxidase stainings from cytocentrifuge preparations.
3×10^6 cells in 100 μl of the medium were plated on top of the tissue sections using a wax pen circle to avoid escape of the fluid. The sections were rotated horizontally on a shaker at 60 rpm for 30 minutes at +4° C. After incubation, the medium was gently tapped away by an absorbent paper and the slides were fixed in 1.5% cold glutaraldehyde overnight. The slides were stained with thionine for 30 min. The excess thionine was gently washed away from the slides in PBS, and the slides were mounted with PBS-glycerol (1:1) or Aquamount Mountant, (BHD Limited, Poole, England). From these preparations the number of lymphocytes bound to various structures was determined. At least 10-20 high power fields were analyzed from each sample and 3-4 animals were included in each group.
The oligosaccharides were dissolved in the binding buffer, and the lymphocytes were incubated in these solutions for 30 min in +4° C. Thereafter, the lymphocytes at the saccharide solutions were added to the Stamper-Woodruff binding assay without further washings and the assay was conducted as described above.
The lymphocytes were, or were not, pretreated for 30 min with various oligosaccharide constructs and added to the Stamper-Woodruff binding assay. After a 30 min binding assay the loose cells were washed away and the number of bound cells were determined.
The binding assays consisted of three experiments performed on separate days.

adhesion = settings: Stoolman et al. 1984; cited from earlier work
[6] = listed as disialylated and difucosylated branched polylactosamine decasaccharide

Question: With `CC(=O)NC1C(O)OC(CO)C(OC2OC(CO)C(O)C(OC3OC(CO)C(OC4OC(CO)C(O)C(OC5OC(CO)C(O)C(O)C5O)C4O)C(O)C3NC(C)=O)C2O)C1O` (stereo not drawn) [Galα1-3Galβ1-4GlcNAcβ1-3Galβ1-4GlcNAc] as the compound, how does the “inhibition of mouse sperm adhesion to eggs” value [1] read?
Answer: does not

Question: Which “binding / affinity to CD22” value (CD22) does the source give for `CC(=O)N[C@H]1[C@H]([C@H](O)[C@H](O)CO)O[C@@](OC[C@H]2O[C@@H](O[C@H]3[C@H](O)[C@@H](NC(C)=O)C(O)O[C@@H]3CO)[C@H](O)[C@@H](O)[C@H]2O)(C(=O)O)C[C@@H]1O` (stereo partly drawn) [NeuAca2-6GalB1-4GlcNAc] here?
Answer: binds specifically

Question: For “NeuAcα2-3Galβ1-4(Fucα1-3)GlcNAc [Glycan 1]”, which “inhibition of lymphocyte adhesion to cardiac endothelium (in words)” value [2] is on record?
Answer: significantly reduce lymphocyte binding

Question: And the “published Stamper-Woodruff data compared with the present ones” value [3]?
Answer: quite similar to the present ones

Question: What about the “inhibition of short-term P-selectin mediated inflammation” value [4] of the same compound?
Answer: inhibiting short-term P-selectin mediated inflammation

Question: And the “anti-inflammatory activity in vivo” value (inflammation)?
Answer: anti-inflammatory activity in vivo

Question: And the “decrease of lymphocyte adhesion / prevented L-selectin-dependent lymphocyte binding” value ([5]; at 0.5 μM)?
Answer: 39%

Question: What about the “inhibition of lymphocyte binding to PTCE (in words)” value [5] of the same compound?
Answer: able to inhibit the lymphocyte binding to PTCE significantly

Question: With “NeuAcα2-3Galβ1-4(Fucα1-3)GlcNAcβ1-3(NeuAcα2-3Galβ1-4(Fucα1-3)GlcNAcβ1-6)Galβ1-4GlcNAc [Glycan 4]” as the compound, how does the “inhibition of lymphocyte adhesion to cardiac endothelium (in words)” value [2] read?
Answer: significantly reduce lymphocyte binding

Question: And the “published Stamper-Woodruff data compared with the present ones” value [3]?
Answer: quite similar to the present ones

Question: And the IC50 [5]?
Answer: 1000 nM

Question: What about the IC50 [5, 6] of the same compound?
Answer: 500 nM

Question: What about the “inhibition of lymphocyte binding to PTCE (in words)” value [5] of the same compound?
Answer: able to inhibit the lymphocyte binding to PTCE significantly

Question: What about the “inhibitory capacity compared with other oligosaccharides (in words)” value [5] of the same compound?
Answer: slightly weaker inhibitor than 28; also recorded: lesser inhibitory capacity than the alditol 28

Question: What about the “inhibitory capacity compared with other oligosaccharides (in words)” value [5, 6] of the same compound?
Answer: less effective inhibitor

Question: Which results are given for “NeuAcα2-3Galβ1-4GlcNAcβ1-3(NeuAcα2-3Galβ1-4GlcNAcβ1-6)Galβ1-4GlcNAcβ1-6(Galβ1-3)GalNAc-ol [Glycan 26]”?
Answer: inhibition of lymphocyte binding to PTCE (in words) [5]: practically devoid of inhibitory activity; also recorded: did not inhibit the lymphocyte binding at all; also recorded: did not possess any inhibitory activity; inhibition of lymphocyte binding to PTCE (in words) ([5]; listed as non-fucosylated O-glycosidic oligosaccharide alditol): did not possess any inhibitory activity

Question: With fucoidin as the compound, how does the “concentration that blocked adhesion” value (adhesion) read?
Answer: in the nM range

Source: patent US5965544A, “Synthetic multivalent sLe^x containing polylactosamines and methods for use” (Glycim Oy, priority 1996, dated 1999)
